Data set [1] has as its system DENV-2 16681 strain. In words: DENV-2 antiviral assay (eGFP fluorescence, Vero cells). The note with it: DENV-2 16681 eGFP, MOI 0.5, 3 days. The data set is classed as cell-based, Dengue virus. As for the experimental part:
The antiviral activity of all the compounds of the invention was tested against the DENV-2 16681 strain which was labeled with enhanced green fluorescent protein (eGPF; Table 1). The culture medium consists of minimal essential medium supplemented with 2% of heat-inactivated fetal calf serum, 0.04% gentamycin (50 mg/mL) and 2 mM of L-glutamine. Vero cells, obtained from ECACC, were suspended in culture medium and 25 μL was added to 384-well plates (2500 cells/well), which already contain the antiviral compounds. Typically, these plates contain a 5-fold serial dilution of 9 dilution steps of the test compound at 200 times the final concentration in 100% DMSO (200 nL). […] Finally, each plate contains wells which are assigned as virus controls (containing cells and virus in the absence of compound), cell controls (containing cells in the absence of virus and compound) and medium controls (containing medium in the absence of cells, virus and compounds). To the wells assigned as medium control, 25 μL of culture medium was added instead of Vero cells. Once the cells were added to the plates, the plates were incubated for 30 minutes at room temperature to allow the cells to distribute evenly within the wells. Next, the plates were incubated in a fully humidified incubator (37° C., 5% CO2) until the next day. Then, DENV-2 strain 16681, labeled with eGFP, was added at a multiplicity of infection (MOI) of 0.5. Therefore, 15 μL of virus suspension was added to all the wells containing test compound and to the wells assigned as virus control. In parallel, 15 μL of culture medium was added to the medium and cell controls. Next, the plates were incubated for 3 days in a fully humidified incubator (37° C., 5% CO2). At the day of the read out, the eGFP fluorescence was measured using an automated fluorescence microscope at 488 nm (blue laser). Using an in-house LIMS system, inhibition dose response curves for each compound were calculated and the half maximal effective concentration (EC50) was determined. Therefore, the percent inhibition (I) for every test concentration is calculated using the following formula: I=100*(ST−SCC)/(SVC−SCC); ST, SCC and SVC are the amount of eGFP signal in the test compound, cell control and virus control wells, respectively. The EC50 represents the concentration of a compound at which the virus replication is inhibited with 50%, as measured by a 50% reduction of the eGFP fluorescent intensity compared to the virus control. The EC50 is calculated using linear interpolation.

Data set [2] can be described thus: in vitro. The note with it: African green monkey.
The test system of data set [3] is DENV-1 strain TC974#666. In words: Tetravalent RT-qPCR assay Protocol A, serotype 1. The data set is classed as cell-based. The following applies: Dengue virus, DENV1, 72 h, RT-qPCR serotype 1 TC974#666, Vero cells, day 3. Here is the method:
(§1) The antiviral activity of the compounds of the invention was tested against DENV-1 strain TC974#666 (NCPV; Table 6), DENV-2 strain 16681 (Table 7), DENV-3 strain H87 (NCPV; Table 8) and DENV-4 strains H241 (NCPV; Table 9A) and SG/06K2270DK1/2005 (Eden; Table 9B) in a RT-qPCR assay. Therefore, Vero cells were infected with either DENV-1, or -2, or -3, or -4 in the presence or absence of test compounds. At day 3 post-infection, the cells were lysed and cell lysates were used to prepare cDNA of both a viral target (the 3′UTR of DENV; Table 2) and a cellular reference gene (β-actin, Table 2). Subsequently, a duplex real time PCR was performed on a Lightcycler480 instrument. The generated Cp value is inversely proportional to the amount of RNA expression of these targets. Inhibition of DENV replication by test compound results in a shift of Cp's for the 3′UTR gene. On the other hand, if a test compound is toxic to the cells, a similar effect on β-actin expression will be observed. The comparative ΔΔCp method is used to calculate EC50, which is based on the relative gene expression of the target gene (3′UTR) normalized with the cellular housekeeping gene (β-actin).
(§2) The culture medium consisted of minimal essential medium supplemented with 2% of heat-inactivated fetal calf serum, 0.04% gentamycin (50 mg/mL) and 2 mM of L-glutamine. Vero cells, obtained from ECACC, were suspended in culture medium and 75 μL/well was added in 96-well plates (10000 cells/well), which already contain the antiviral compounds. […] In addition, each plate contains wells which are assigned as virus controls (containing cells and virus in the absence of compound) and cell controls (containing cells in the absence of virus and compound). Once the cells were added in the plates, the plates were incubated in a fully humidified incubator (37° C., 5% CO2) until the next day. Dengue viruses serotype-1, 2, 3 and 4 were diluted in order to obtain a Cp of ˜22-24 in the assay. Therefore, 25 μL of virus suspension was added to all the wells containing test compound and to the wells assigned as virus control. In parallel, 25 μL of culture medium was added to the cell controls. Next, the plates were incubated for 3 days in a fully humidified incubator (37° C., 5% CO2). After 3 days, the supernatant was removed from the wells and the cells were washed twice with ice-cold PBS (˜100 μL). The cell pellets within the 96-well plates were stored at −80° C. for at least 1 day. Next, RNA was extracted using the Cells-to-CT™ lysis kit, according to the manufacturer's guideline (Life Technologies). The cell lysates can be stored at −80° C. or immediately used in the reverse transcription step.
(§3) In preparation of the reverse transcription step, mix A (table 3A) was prepared and 7.57 μL/well was dispensed in a 96-well plate. After addition of 5 μL of the cell lysates, a five minute denaturation step at 75° C. was performed (table 3B). Afterwards, 7.43 μL of mix B was added (table 3C) and the reverse transcription step was initiated (table 3D) to generate cDNA.
(§4) Finally, a RT-qPCR mix was prepared, mix C (table 4A), and 22.02 μL/well was dispensed in 96-well LightCycler qPCR plates to which 3 μL of cDNA was added and the qPCR was performed according to the conditions in table 4B on a LightCycler 480.
(§5) Using the LightCycler software and an in-house LIMS system, dose response curves for each compound were calculated and the half maximal effective concentration (EC50) and the half maximal cytotoxic concentration (CC50) were determined.

Data set [4] deals with DENV-2 strain 16681. The data set is described as follows: Tetravalent RT-qPCR assay Protocol A, serotype 2. The data set is classed as cell-based. The following applies: Dengue virus. Here is the method: as §1, §2, §3, §4, §5
The subject of data set [5] is DENV-3 strain H87. The data set is described as follows: Tetravalent RT-qPCR assay Protocol A, serotype 3. The data set is classed as cell-based. The following applies: Dengue virus, DENV3, 72 h, RT-qPCR serotype 3 H87, Vero cells, day 3. Here is the method: as §1, §2, §3, §4, §5
(Real-time PCR tracks product formation cycle by cycle.)

Data set [6] relates to DENV-4 strain H241. In words: Tetravalent RT-qPCR assay Protocol A, serotype 4 H241. The data set is classed as cell-based. The note with it: Dengue virus. As for the experimental part: as §1, §2, §3, §4, §5
Data set [7] in a line: in vitro. It counts as cell-based. The note with it: African green monkey, CC50. As for the experimental part: as §1, §2, §5
The subject of data set [8] is Vero cells. The note with it: African green monkey.
Where [9] appears, read: Dengue virus, DENV2, Vero, 72 h.
Setting [10] is: DENV2, 72 h, Protocol A, RT-qPCR serotype 2 16681, Vero cells, day 3, read-out: EC50.
Setting [11] is: DENV4, 72 h, Protocol A, RT-qPCR serotype 4 H241, Vero cells, day 3, read-out: EC50.

Like-named read-outs stand apart in the source and are kept apart here. Some results are limits rather than exact numbers.

As usually defined, the EC50 is the concentration needed to bring the measured effect to its halfway point. `COc1cc(NC(C(=O)c2c[nH]c3c(C)c(F)ccc23)c2ccc(Cl)cc2OC)cc(S(C)(=O)=O)c1` (racemic) [Compound 2, 2-(4-chloro-2-methoxyphenyl)-1-(6-fluoro-7-methyl-1H-indol-3-yl)-2-((3-methoxy-5-(methylsulfonyl)phenyl)amino)ethanone]: in data set [1] (setting [9]), the midpoint of the response, the EC50, lay at 0.6 nM. This compound also returned a CC50 in data set [2] of 5000 nM.
On to `COc1cc(NC(C(=O)c2c[nH]c3cc(OC)ccc23)c2ccc(Cl)cc2OC)cc(S(C)(=O)=O)c1` (racemic) [Compound 3, 2-(4-chloro-2-methoxyphenyl)-1-(6-methoxy-1H-indol-3-yl)-2-((3-methoxy-5-(methylsulfonyl)phenyl)amino)ethanone], for which, in data set [1] (setting [9]), the midpoint of the response, the EC50, lay at 0.58 nM. In data set [2], the CC50 was above 11000 nM.
Compound `COc1cc(NC(C(=O)c2c[nH]c3cc(OC)c(C)cc23)c2ccc(Cl)cc2OC)cc(S(C)(=O)=O)c1` (racemic) [Compound 4, 2-(4-chloro-2-methoxyphenyl)-2-((3-methoxy-5-(methyl-sulfonyl)phenyl)amino)-1-(6-methoxy-5-methyl-1H-indol-3-yl)ethanone] had an EC50 in data set [1] (setting [9]) of 0.39 nM. Moreover, in data set [2], the CC50 amounted to 5900 nM.
On the same counts, the results for `COc1cc(NC(C(=O)c2c[nH]c3cc(OC)c(F)cc23)c2ccc(Cl)cc2OC)cc(S(C)(=O)=O)c1` (racemic) [Compound 5, 2-(4-chloro-2-methoxyphenyl)-1-(5-fluoro-6-methoxy-1H-indol-3-yl)-2-((3-methoxy-5-(methylsulfonyl)phenyl)amino)ethanone] are 0.62 nM and 5500 nM.
As for `COc1cc(NC(C(=O)c2c[nH]c3cc(F)c(C)cc23)c2ccc(Cl)cc2OC)cc(S(C)(=O)=O)c1` (racemic) [Compound 7, 2-(4-chloro-2-methoxyphenyl)-1-(6-fluoro-5-methyl-1H-indol-3-yl)-2-((3-methoxy-5-(methylsulfonyl)phenyl)amino)ethanone], in data set [1] (setting [9]), the half-maximal effective concentration (EC50) was found to be 0.47 nM. Further, the CC50 in data set [2] was 3200 nM.
`COc1cc(NC(C(=O)c2c[nH]c3ccc(C(F)(F)F)cc23)c2ccc(Cl)cc2OC)cc(S(C)(=O)=O)c1` (racemic) [Compound 8, 2-(4-chloro-2-methoxyphenyl)-2-((3-methoxy-5-(methyl-sulfonyl)phenyl)amino)-1-(5-(trifluoromethyl)-1H-indol-3-yl)ethanone]: the response in data set [1] (setting [9]) was half-maximal at 0.13 nM (EC50). Also, in data set [2], the CC50 was found to be 2900 nM.
For `COc1cc(NC(C(=O)c2c[nH]c3ccc(OC(F)(F)F)cc23)c2ccc(Cl)cc2OC)cc(S(C)(=O)=O)c1` (racemic) [Compound 9, 2-(4-chloro-2-methoxyphenyl)-2-((3-methoxy-5-(methyl-sulfonyl)phenyl)amino)-1-(5-(trifluoromethoxy)-1H-indol-3-yl)ethanone] the same measures were 0.074 nM and 3100 nM.
In the case of `COc1cc(NC(C(=O)c2c[nH]c3cc(F)c(C)cc23)c2ccc(Cl)cc2OC)cc(S(C)(=O)=O)c1` (single isomer, unassigned) [Compound 7B, 2-(4-chloro-2-methoxyphenyl)-1-(6-fluoro-5-methyl-1H-indol-3-yl)-2-((3-methoxy-5-(methylsulfonyl)phenyl)amino)ethanone], the EC50 in data set [1] was determined as 0.2 nM; in data set [3], 0.4 nM; in data set [4] (setting [10]), 0.17 nM; in data set [5] it was 7.8 nM; in data set [6] (setting [11]) it was 44 nM. The compound further came in with a CC50 at 3 days in data set [7] of 2200 nM. The CC50 in data set [8] is 3200 nM.
In the case of `COc1cc(NC(C(=O)c2c[nH]c3ccc(C(F)(F)F)cc23)c2ccc(Cl)cc2OC)cc(S(C)(=O)=O)c1` (single isomer, unassigned) [Compound 8B, 2-(4-chloro-2-methoxyphenyl)-2-((3-methoxy-5-(methyl-sulfonyl)phenyl)amino)-1-(5-(trifluoromethyl)-1H-indol-3-yl)ethanone], the EC50 in data set [1] is 0.069 nM; in data set [3], 0.45 nM; in data set [4] (DENV2, Vero, 72 h), 0.31 nM; in data set [5] it was 5.8 nM; in data set [6] (setting [11]), 15 nM. This compound also showed a CC50 at 3 days in data set [7] of 1900 nM. For the same compound, the CC50 in data set [8] turned out to be 3400 nM.
Take `COc1cc(NC(C(=O)c2c[nH]c3ccc(OC(F)(F)F)cc23)c2ccc(Cl)cc2OC)cc(S(C)(=O)=O)c1` (single isomer, unassigned) [Compound 9A, 2-(4-chloro-2-methoxyphenyl)-2-((3-methoxy-5-(methyl-sulfonyl)phenyl)amino)-1-(5-(trifluoromethoxy)-1H-indol-3-yl)ethanone]: the EC50 in data set [1] worked out at 0.067 nM; in data set [3] it was 0.11 nM; in data set [4] (setting [10]), 0.057 nM; in data set [5] it was 2.1 nM; in data set [6] (setting [11]) it was 12 nM. In data set [7], this compound displayed a CC50 at 3 days of 1700 nM. The same compound registered a CC50 in data set [8] of 2900 nM.
Take `COc1cc(NC(C(=O)c2c[nH]c3c(C)cc(OC(F)(F)F)cc23)c2ccc(Cl)cc2OC)cc(S(C)(=O)=O)c1` (single isomer, unassigned) [Compound 11A, 2-(4-chloro-2-methoxyphenyl)-2-((3-methoxy-5-(methylsulfonyl)phenyl)amino)-1-(7-methyl-5-(trifluoromethoxy)-1H-indol-3-yl)ethanone]: the EC50 turned out to be 0.085 nM in data set [1]; 0.13 nM in data set [3]; 0.051 nM in data set [4] (setting [10]); 1.2 nM in data set [5]; 11 nM in data set [6] (DENV4, Vero, 72 h). The CC50 at 3 days in data set [7] was above 2500 nM. The same compound had a CC50 in data set [8] of 2600 nM.

The values above are taken from patent US12172959B2, “Mono- or di-substituted indole derivatives as dengue viral replication inhibitors” (priority 2015, dated 2024).
